Measurements reported in patent publication US20110206608A1, “Pharmaceutical Composition Of A Radioiodinated Benzamide Derivative And Methods Of Making Same” (priority 2008, published 2011).
Entries after “also recorded” stand apart in the source; their conditions may differ. Where two headings read alike, the source gives them in different places. One block for each compound: values may come before it.

Experiments:
B16 melanoma = B16 melanoma bearing C57BL/J1 mouse, cited from earlier work
melanin = melanin targeting / binding capacity in vitro and in vivo
B16F10 tumor = assay: Organ distribution and tumor accumulation in B16F10 tumor bearing mice; format: in vivo; conditions: for biodistribution (distribution properties): B16F10 tumor bearing mice, 1 hour and 24 hour after intravenous administration, FIG. 4
Description: FIG. 3 illustrates the biodistribution of ^131I-Cmpd B and ^131I-Cmpd BD in B16F10 bearing mice.
FIG. 4 illustrates the biodistribution of ^131I-Cmpd A, ^131I-Cmpd B, ^131I-Cmpd C, and ^131I-Cmpd D in B16F10 tumor bearing mice.
The organ distribution and tumor accumulation experiments were performed in B16F10 tumor bearing mice. At times indicated (1 hour and 24 hour) after intravenous administration of the substances, the animals were sacrificed, organs and tumors were removed, optionally dabbed dry, weighed, and measured for radioactive content in a calibrator with the corresponding isotope standard. The results are depicted as % of the injected dose/gm of tissue. FIG. 4 illustrates the biodistribution of ^131I-Cmpd A, ^131I-Cmpd B, ^131I-Cmpd C, and ^131I-Cmpd D in B16F10 tumor bearing mice.

[1] = Stability in ^131I-labeling, Tl(TFA)3/TFA iodination (Example 6-A); format: physicochemical; conditions: for chemical stability during the radioiodination: Tl(TFA)3/TFA iodination; for Identified impurity (%) / RCP (%): after ^131I-labeling with 2.5 mCi Na^131I
Source text: Purpose: ^131I-labeling yield and stability were compared side-by-side for (Compound C, Compound D and Compound A) together with Compound B (with or without addition of Dioxolane).
Results: The T1(TFA)3/TFA iodination method could be used for ^131I-Compound C, ^131I-Compound D and Compound A. Different from Compound B, there was almost no degraded impurities occurred during the labeling (^131I-Compound C, ^131I-Compound D or Compound A) at a radioactivity dose level of 2.5 mCi.

[2] = Solubility over one week storage at RT, visual inspection and HPLC (Example 7-C); format: physicochemical; conditions: for HPLC measured conc. at 7 days: 3 mg/mL prepared, with 3% acetic acid; for aqueous solubility: comparison among the tested compounds
Description: Compound C and Compound D were dissolved in acetic acid first, and then with PEG400/ethanol; the solution was finally diluted in matrix into a final concentration of 3 mg/mL. The matrix included 3% sodium gentisate (w/v) and 6% ascorbic acid (w/v) (pH=3.6). The prepared sample solution was kept at RT and examined by visual inspection. The concentration of the tested compounds in the solution or in the supernatant was analyzed by HPLC.

[3] = Solubility at 3 mg/mL, dissolved in acetic acid, then PEG400/ethanol, then matrix, visual inspection (Example 7-B); format: physicochemical; conditions: 3% acetic acid, 30% PEG400, 2% ethanol, 6% ascorbic acid, 3% sodium gentisate, pH=3.6, RT
Description: The compounds were dissolved in acetic acid first, and then diluted with PEG400/ethanol; the solution was finally diluted in matrix into a final concentration of 3 mg/mL. The components of the matrix included 3% sodium gentisate (w/v) and 6% ascorbic acid (w/v) (pH=3.6). The prepared sample solution was kept at RT and examined by visual inspection.

[4] = Stability post labelling in radiolysis protecting buffer, 3 days storage at RT (Example 6-B); format: physicochemical; conditions: for Free ^131I (%) / Identified impurity (%) / RCP (%): RT, radiolysis protecting buffer, ~11 mCi/mL
[5] = Tumor uptake and retention of ^123I-Compound B in B16 melanoma bearing mice; format: in vivo; conditions: mouse
Source text: Tumor uptake and retention of ^123I-Compound B in B16 melanoma bearing mice (% ID/g) was as shown in Table B. Those studies were done using the method disclosed in Eisenhut et al., J. Med. Chem. 2000, 43(21), 3913-22.

SK-MEL-3 tumor = assay: Effect on SK-MEL-3 tumor growth in mice; format: in vivo; conditions: 68 mCi/m^2
Source text: FIG. 6 illustrates the effect of ^131I-Cmpd A (68 mCi/m^2) on SK-MEL-3 tumor growth at various dose levels.
FIG. 7 illustrates the effect of ^131I-Cmpd A (68 mCi/m^2) on SK-MEL-3 tumor growth in mice at various dose levels. […] (Please note that animals were euthanized if tumor volume was>1500 mm^3).
Effects of ^131I-Cmpd A (68 mCi/m^2) on SK-MEL-3 tumor growth were investigated in mice. Saline and dacarbazine were used as references for the study. In this experiment, different batches of mice were administered a dose of 68 mCi/m^2 of ^131I-Cmpd A once a day, twice a day, and thrice a day. The treatment lasted for 125 days. The mice were euthanized if tumor volume was greater than 1500 mm^3. The treated mice were closely monitored and sacrificed if any signs of approaching death were shown. Tumor change (length and width of tumor) was monitored every few days.

[6] = protected with 10 μL of Dioxolane

biodistribution (distribution properties) (B16F10 tumor): desirable distribution properties
chemical stability during the radioiodination [1]: stable
Identified impurity (%) ([1]; Tl(TFA)3/TFA): 0%
RCP (%) ([1]; Tl(TFA)3/TFA): 97.1%
HPLC measured conc. at 7 days ([2]; RT, concentration in the supernatant): 0.23 mg/mL
Solution inspection at 7 days ([2]; 3 mg/mL, 3% acetic acid, 30% PEG400, 2% ethanol, 6% ascorbic acid, 3% sodium gentisate, RT): Precipitation**
Solution inspection [3]: Clear solution
Structure (SMILES): CCN(CC)CCNC(=O)c1cc(I)c(NC(=O)c2ccc(Cl)cc2)cc1OC [Compound C, 4-(4-chlorobenzoylamino)-N-(2-(diethylamino)ethyl)-5-iodo-2-methoxybenzamide]
melanin targeting capacity (melanin): found to have melanin targeting capacity both in vitro and in vivo
aqueous solubility [2]: poor aqueous solubility; also recorded: Compound A>Compound D>>Compound C

biodistribution (distribution properties) (B16F10 tumor): desirable distribution properties
chemical stability during the radioiodination [1]: stable
Identified impurity (%) ([1]; Tl(TFA)3/TFA): 0%
RCP (%) ([1]; Tl(TFA)3/TFA): ~100%
HPLC measured conc. at 7 days ([2]; RT): 2.89 mg/mL
Solution inspection [3]: Clear solution
Structure (SMILES): CCN(CC)CCNC(=O)c1cc(I)c(NC(=O)c2ccc(OC)cc2)cc1OC [Compound D, N-(2-diethylamino-ethyl)-5-iodo-2-methoxy-4-(4-methyoxybenzoylamino)benzamide]
melanin targeting capacity (melanin): found to have melanin targeting capacity both in vitro and in vivo
aqueous solubility [2]: poor aqueous solubility; also recorded: Compound A>Compound D>>Compound C

Further lines, the compound ahead of its results:

Structure (SMILES): CCN(CC)CCNC(=O)c1ccc([123I])cc1 [^123I-BZA]
tumor wash-out (% ID/g) (B16 melanoma; 1 h): 6.8 % ID/g
tumor wash-out (% ID/g) (B16 melanoma; 24 h): 0.8 % ID/g
tumor wash-out (% ID/g) (B16 melanoma; 72 h): 0.3 % ID/g

Structure (SMILES): CCN(CC)CCNC(=O)c1cc(I)c(NC(=O)c2ccc3c(c2)OCO3)cc1OC [Compound B, benzo[1,3]dioxole-5-carboxylic acid [4-(2-diethylamino-ethylcarbamoyl)-2-iodo-5-methoxyphenyl]amide]
Free ^131I (%) ([4]; 0 day): 0.1%
Identified impurity (%) ([4]; 0 day): 10.3%
RCP (%) ([4]; 0 day): 89.5%
Free ^131I (%) ([4]; 3 day): 2.4%
Identified impurity (%) ([4]; 3 day): 8.8%
RCP (%) ([4]; 3 day): 88.6%
stability during the 3 days storage at RT post labeling ([4]; diluted in radiolysis protecting solution, Compound B vs Compound A): no significant difference in stability
tissue uptake at 1 h ([5]; 1 h): 14.8 %ID/g
tissue uptake at 5 h ([5]; 5 h): 22.7 %ID/g
tissue uptake at 48 h ([5]; 48 h): 16.6 %ID/g
melanin targeting capacity (melanin): found to have melanin targeting capacity both in vitro and in vivo
biodistribution (distribution properties) (B16F10 tumor): desirable distribution properties
chemical stability during the radioiodination [1]: poor chemical stability
Identified impurity (%) ([1]; Tl(TFA)3/TFA): 5.5%
RCP (%) ([1]; Tl(TFA)3/TFA): 90.3%
Identified impurity (%) [1, 6]: 2.3%
RCP (%) [1, 6]: 94.0%

Structure (SMILES): CCN(CC)CCNC(=O)c1cc([131I])c(NC(=O)c2ccc(F)cc2)cc1OC [Compound A, N-(2-(diethylamino)ethyl)-4-(4-fluoro-benzoylamino)-5-iodo-2-methoxybenzamide]
tumor growth (tumor change) (SK-MEL-3 tumor; SK-MEL-3 tumor in mice, FIG. 6): reducing the tumor growth
survival of the mice (SK-MEL-3 tumor; SK-MEL-3 tumor in mice, FIG. 7): increasing survival of the mice
response to treatment (SK-MEL-3 tumor; human melanoma mouse xenograft model): complete response (CR) has been observed
biodistribution (distribution properties) (B16F10 tumor): desirable distribution properties
tumor uptake and retention (B16F10 tumor; tumor bearing animal models): significant high tumor uptake and prolonged retention
chemical stability during the radioiodination [1]: stable
